According to patent US7291625B2, “Use of a vitamin combination for the treatment of pruritus and non-infective disorders involving itching and/or inflammation” (priority 1999, dated 2007):
Read-outs that look alike come from different tables or passages of the source.

Key:
[1] = test system: uremic pruritus and sine materia pruritus forms; experiment: Clinical experimentation: systemic niacin or niacinamide alone at pellagra dosage in pruritus forms; conditions: for effectiveness in combating the pruritus forms: systemic administration alone at pellagra dosage, uremic and sine materia pruritus
[2] = systemic, 2 to 6 g per day, therapy of hyperlipidemia; cited from earlier work
[3] = test system: uremic pruritus and sine materia pruritus forms; conditions: human, in vivo
[4] = test system: uremic pruritus; experiment: Clinical case reports: uremic pruritus (renal dialysis, chronic renal failure or insufficiency); assay type: in vivo, human
Experimental: In the treatment of uremic subjects who currently undergo dialysis the protocol is the same as for the 1st phase above, but the continuation of the treatment with half the dose will take place starting after each dialysis treatment (also in this case, after the meal and with abundant water).
Thereafter, the patient was treated with 50 mg of nicotinamide+2.5 mg of riboflavin twice daily, by oral administration. […] The patient continued the same therapy for about 15 days, and thereafter the dosage was reduced to one-half, the administration occurring after the dialysis treatment. […]
Lastly, they underwent an additional 3 hours dialysis treatment each week, with carbon filter, for four weeks on end.
The treatment was started with 50 mg of nicotinamide twice daily, to be taken orally after the main meals. […] The patient continued to take 50 mg of nicotinamide after dinner for 15 more days, and then they took 50 mg of the same agent only on the day of the dialytic treatment. […]

[5] = test system: anal and vulvar pruritus; experiment: Clinical case reports: anal and vulvar pruritus; assay type: in vivo, human
Source text: (§1) It is advisable to take the medicament by the oral route, after the main meals, with abundant water (at least half a glass). In the event that the treatment is discontinued and the symptoms revert, it is necessary to start again from the 1st phase.
As a first attempt, a gastroenterologist had been consulted for the anal itching, and thereafter a gynaecologist had been consulted for the vulvar itching.
The treatment was continued for 12 more days, and then it was reduced to half the dosage, for 15 days a month.
Then, the patient was given a therapy with 50 mg of nicotinamide twice daily, by oral administration, after the main meals. […] The patient continued to take 50 mg of nicotinamide daily, after dinner, for 15 days, and then they discontinued the treatment.
The treatment was then continued for 15 more days, with half the dosage, and then finally discontinued.

[6] = test system: senile pruritus; experiment: Clinical case reports: senile pruritus; assay type: in vivo, human
Source text: as §1
3rd case— subject with senile pruritus—The patient had been complaining for about 3 years of a diffused itching, which had become increasingly intense. At first, they consulted their physician, who addressed them to a dermatologist.
The patient was then treated by oral administration of 50 mg of nicotinamide+2.5 mg of riboflavin twice daily. […] Thereafter, the therapy was reduced to half the dosage, for 15 days a month.
4th case— subject with senile pruritus—The patient had been suffering for about 2 years and a half from a diffused continuous itching at the torso and on the upper and lower limbs.
The treatment was continued with half the dose for further 15 days and then it was finally discontinued.
The treatment with half the dose was continued for 15 days, and then it was discontinued.
3rd case— subject with senile pruritus—The patient had been suffering for about one year from a diffused itching. […] Thereafter, the diagnosis of senile itching was made.

## O=C(O)c1cccnc1 [niacin, 3-pyridinecarboxylic acid]
[1]
  effectiveness in combating the pruritus forms: not appreciably effective
[2]
  adverse side effects at large doses: adverse side effects, including gastrointestinal disturbances (such as abdominal pain and nausea) hepatotoxicity, and, above all, flushing
[3]
  side effects of flushing and itching: does not lead to the undesired side effects of flushing and itching

## NC(=O)c1cccnc1 [nicotinamide]
[1]
  effectiveness in combating the pruritus forms: not appreciably effective
[1]; systemic administration alone at the dosage used for prevention and therapy of pellagra
  side effects of flushing and itching: does not lead to the undesired side effects of flushing and itching
[4]; series 2 case 1: person on renal dialysis, 50 mg nicotinamide alone twice daily oral
  pruritus after one month and a half: pruritus had sensibly decreased
[4]; series 2 case 1, nicotinamide alone, reduced to 50 mg on dialysis days
  itching at check-up after one month: still complained of some moderate itching
[4]; series 2 case 2: person on renal dialysis, 50 mg nicotinamide alone twice daily oral
  symptom after 45 days: appreciable reduction of the symptom
[4]; series 2 case 2, nicotinamide alone
  itching 15 days after discontinuation: itching had started again to gradually increase
[4]; series 2 case 5: chronic renal insufficiency, 50 mg nicotinamide alone twice daily oral
  itching after 35 days: some moderate itching
[4]; series 2 case 5, nicotinamide alone
  itching about 10 days after discontinuation: itching had started to increase again
[4]; series 3 case 1: person on renal dialysis three times weekly, 50 mg nicotinamide alone twice daily oral
  itching after 65 days: itching had only become milder without disappearing
[4]; series 3 case 1, 50 mg nicotinamide after each dialysis treatment
  pruritus at check-ups every 2 months: persistent pruritus of a reduced intensity
[4]; series 3 case 2: renal insufficiency, 50 mg nicotinamide alone twice daily oral
  itching after 50 days: itching had become milder, without totally disappearing
[4]; series 3 case 2, continued 50 mg/day nicotinamide
  itching at subsequent periodical checks: moderate itching diffused on the whole body
[2]
  adverse side effects at large doses: adverse side effects, including gastrointestinal disturbances (such as abdominal pain and nausea) hepatotoxicity, and, above all, flushing
[5]; series 2 case 3: anal vulvar pruritus, 50 mg nicotinamide alone twice daily oral
  itching after 60 days: itching was moderate
[5]; series 2 case 3, nicotinamide alone
  itching 15 days after discontinuation: itching started to increase again
[5]; series 3 case 4: anal and vulvar pruritus, 50 mg nicotinamide alone twice daily oral
  symptoms after 2 months: a decrease of the symptoms was detected
[5]; series 3 case 4, still taking 50 mg/day nicotinamide
  itching at subsequent monthly checks: still complained of a moderate itching
[6]; series 2 case 4: senile pruritus, 50 mg nicotinamide alone twice daily oral
  pruritus after 40 days: pruritus was quite mild
[6]; series 2 case 4, nicotinamide alone
  itching about 10 days after discontinuation: itching had started again to increase
[6]; series 3 case 3: senile pruritus, 50 mg nicotinamide alone twice daily oral
  itching after 45 days: itching had only slightly decreased
[6]; series 3 case 3, nicotinamide therapy continued
  itching at subsequent monthly checks: diffused moderate itching
